Entries after “also recorded” stand apart in the source; their conditions may differ.
Columns and labels:
mice [1] = experiment: light-dark box test after chronic restraint stress; format: in vivo; details: repeated LSD 30 μg/kg, FIG. 2A
Method: (§1) A paradigm of repeated stress-induced anxiety-like behavior was employed, in order to mimic anxious states induced by chronic stressor exposure in humans. Chronic restraint stress was chosen for its ability to reliably and relatively quickly induce anxiety-like behavior. Briefly, mice were placed in well ventilated plexiglass restrainers for 2 hours per day, for 15 days, then returned to a horizontal resting position on an open bench. During the procedure, the animals had no access to food and water. Control mice were left undisturbed in their home cage. This regimen duration was chosen given that, in pilot experiments, it represented the minimum duration of restraint stress which exacerbated anxiety-like behavior.
For the light-dark box test, an apparatus consisting of a light, open topped, opaque, plexiglass box (27×27×30 cm) connected to a dark, closed topped, opaque, plexiglass box (18×27×30 cm) was used. The light and dark boxes were connected by a small opening (12×5 cm) which allowed the mouse to cross between the two compartments. The light box was illuminated by a 100 W desk lamp. Each mouse was placed in the illuminated box and observed for 5 min. When the four paws were in the light box, the mouse was considered to be in the light compartment. […]

healthy volunteers = details: cited from earlier work
dopaminergic system = details: doses 30-120 μg/kg, 60-120 μg/kg; leading to psychotic-like hallucinogenic symptoms; cited from earlier work
male C57BL/6J mice [2] = experiment: direct social interaction test (DSI); format: in vivo
Method: (§2) The increase in social interaction was observed 24 hours after the last injection in two validated paradigms of social behavior: the direct social interaction test (FIG. 1A) and the three-chamber test (FIG. 1B).

[3] = system: 5-HT neurons originating in the Dorsal Raphe Nucleus (DRN); details: doses 5-30 μg/kg; mice; cited from earlier work
male C57BL/6J mice [4] = experiment: three chambers test (TCT); format: in vivo; details: repeated LSD 25-35 μg/kg per day for 7 days; vs veh; FIG. 1B
Method: as §2

mice [5] = experiment: head-twitches after acute dose; details: FIG. 3
dopamine D2 receptor = dopamine D2 receptor (Homo sapiens, UniProt P14416); details: read-out: affinity (ki), partial agonist; cited from earlier work
mice [6] = experiment: novelty suppressed feeding test after chronic restraint stress; format: in vivo; details: repeated LSD 30 μg/kg; chronic restraint stress mice vs vehicle-treated stressed mice; FIG. 2B
Method: as §1
This procedure was used to measure neohypophagia (the anxiety-induced inhibition of feeding upon exposure to a novel environment). This test is used to validate the acute effects of putative anxiolytics. Mice were food-deprived for 48-hours; subsequently, each mouse was placed in a brightly illuminated (100 W, 350 Ix) open arena (40×40 cm, white-painted floor with walls 30 cm high), containing standard chow (3 pellets) in the center of the arena. The latency to initiate feeding (in seconds) was used as an index of anxiety-like behavior. […]

[7] = system: mammalian target of rapamycin complex (mTOR); experiment: mTOR phosphorylation in the mPFC; format: in vivo, mice
[8] = system: glutamatergic and serotonergic neurotransmission in the medial prefrontal cortex (mPFC) and in the DRN; experiment: electrophysiological experiments in mPFC and DRN; format: in vivo, mice; details: repeated regimen of LSD

Chain of dopamine D2 receptor (P14416 whole entry, species assumed): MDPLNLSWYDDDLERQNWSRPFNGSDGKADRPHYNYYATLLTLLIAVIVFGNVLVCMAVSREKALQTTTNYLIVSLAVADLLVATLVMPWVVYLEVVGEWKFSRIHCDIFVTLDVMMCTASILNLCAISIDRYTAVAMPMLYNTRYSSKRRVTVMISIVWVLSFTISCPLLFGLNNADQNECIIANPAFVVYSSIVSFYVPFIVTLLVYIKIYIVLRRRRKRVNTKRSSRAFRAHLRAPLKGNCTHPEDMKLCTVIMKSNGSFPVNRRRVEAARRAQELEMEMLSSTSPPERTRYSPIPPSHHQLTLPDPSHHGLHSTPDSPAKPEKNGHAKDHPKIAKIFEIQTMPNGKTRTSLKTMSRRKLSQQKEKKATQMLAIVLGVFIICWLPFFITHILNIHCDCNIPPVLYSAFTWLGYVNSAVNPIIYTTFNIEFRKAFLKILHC

In the case of `CCN(CC)C(=O)[C@@H]1C=C2c3cccc4[nH]cc(c34)C[C@H]2N(C)C1` [LSD, Lysergic acid diethylamide], the “anxiety-like behavior: number of transitions between light and dark compartments” value (mice [1]) is listed as “prevents chronic stress-induced anxiety-like behavior; also recorded: number of entries similar to the control mice treated with the vehicle; also recorded: normalized the transition between the dark and the light compartment”, the “optimism, mood and trait openness” value (healthy volunteers; 2 weeks after LSD administration) is listed as “increased optimism, mood and trait openness” and the “mood and social effects” value (healthy volunteers; after 200 μg of LSD) is listed as “Positive mood changes and altruistic/positive social effects”. The social behavior (healthy volunteers; healthy volunteers) was “increase social behavior”, the dopaminergic system activity (dopaminergic system) was “inhibit the dopaminergic system” and the social interaction (male C57BL/6J mice [2]; lower doses 5, 10 μg/kg for 3 days) was “non-significant increase in social interaction”. For the same compound, the “social interaction / interaction time toward the unfamiliar mouse” value (male C57BL/6J mice [2]; repeated LSD 25-35 μg/kg per day for 7 days, 24 hours after last injection, vs veh (saline), FIG. 1A) was “increased social interaction; also recorded: increases interaction time”, the social behavior (male C57BL/6J mice [2]; single administration, FIG. 1A) was “did not produce any effect on social behavior” and the “activity of 5-HT neurons” value [3] was “decreasing the activity of 5-HT neurons”. For the same compound, the “preference for social novelty / sniffing time toward a novel mouse” value (male C57BL/6J mice [4]) was “promoted the preference for the social novelty; also recorded: promotes preference for social novelty”, the “hallucinogenic effects (head-twitches)” value (mice [5]; acute (single) dose 15 μg/kg or less) was “did not provide hallucinogenic effects” and the “adverse events (hallucinations, head twitches)” value (mice [5]; acute (single) dose 30 μg/kg) was “produces adverse events”. For the same compound, the “adverse events (hallucinations, head twitches)” value (mice [5]; acute (single) dose 60 μg/kg) was “produces adverse events”, the “head twitches versus dose” value (mice [5]; as an acute (single) dose is increased) was “increase in head twitches” and the Ki (dopamine D2 receptor) was 25 nM. For the same compound, the “anxiety-like behavior: latency to feed” value (mice [6]) was “prevents chronic stress-induced anxiety-like behavior; also recorded: reduced latency to feed; also recorded: decreased latency to feed”, the “phosphorylation levels of mTOR” value [7] was “increased the phosphorylation levels” and the “glutamatergic and serotonergic neurotransmission” value [8] was “potentiates both glutamatergic and serotonergic neurotransmission”.
